Data on seven molecules can be found in US20250073255A1, “USE OF FA-TYPE LIPID COMPOUNDS IN PREPARATION OF NUCLEIC ACID DELIVERY REAGENT AND RELATED PRODUCT” (BEIJING BAISHIKANG PHARMACEUTICAL TECHNOLOGY (BSJPHARMA) …, priority 2021, published 2025).

For the test, the system named is C57BL/6 male mice. Kind of test: In vivo delivery study of lipid nucleic acid mixture (oral gavage, RT-qPCR of PGY-sRNA-26 in tissues). Conditions: for oral delivery of single-stranded sRNA nucleic acids into mouse blood / oral delivery of single-stranded sRNA nucleic acids into mouse brain tissue / oral delivery of single-stranded sRNA nucleic acids into mouse femur / oral delivery of single-stranded sRNA nucleic acids into mouse heart tissue / oral delivery of single-stranded sRNA nucleic acids into mouse intestinal tissue / oral delivery of single-stranded sRNA nucleic acids into mouse kidney tissue / oral delivery of single-stranded sRNA nucleic acids into mouse liver tissue / oral delivery of single-stranded sRNA nucleic acids into mouse lung tissue / oral delivery of single-stranded sRNA nucleic acids into mouse pancreatic tissue / oral delivery of single-stranded sRNA nucleic acids into mouse spleen tissue / oral delivery of single-stranded sRNA nucleic acids into mouse stomach tissue: 100 μg lipid:10 nmol PGY-sRNA-26, sampled after 12 hours; for oral delivery of single-stranded sRNA nucleic acids into mouse heart tissue: vs free uptake group; for oral delivery of single-stranded sRNA nucleic acids into mouse intestinal tissue: intestine; for oral delivery of single-stranded sRNA nucleic acids into mouse pancreatic tissue: pancreas. Details: species or system mouse. In outline:
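Stem-loop RT and SYBR qPCR, normalized to U6, measured PGY-sRNA-26 in blood and organs 12 h after gavage. Dosing was 10 nmol sRNA with 100 μg lipid, pre-mixed and heated 15 min at 90 °C, in 12-h-fasted mice, against saline and free-sRNA groups.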

Molecules are shown by their SMILES.

Consider `CCCCC/C=C\C/C=C\C/C=C\C/C=C\CCCC(=O)NCCCCCO` [Lipid 807, (5Z,8Z,11Z,14Z)-N-(5-hydroxypentyl)icosa-5,8,11,14-tetraenamide], for which the “oral delivery of single-stranded sRNA nucleic acids into mouse blood” value was “can effectively orally deliver”, the “oral delivery of single-stranded sRNA nucleic acids into mouse brain tissue” value is reported as “can effectively orally deliver”, the “oral delivery of single-stranded sRNA nucleic acids into mouse femur” value is given as “can effectively orally deliver” and the “oral delivery of single-stranded sRNA nucleic acids into mouse heart tissue” value was “can effectively orally deliver”. Also, the “oral delivery of single-stranded sRNA nucleic acids into mouse intestinal tissue” value is reported as “can effectively orally deliver”, the “oral delivery of single-stranded sRNA nucleic acids into mouse kidney tissue” value is reported as “can effectively orally deliver”, the “oral delivery of single-stranded sRNA nucleic acids into mouse liver tissue” value was “can effectively orally deliver” and the “oral delivery of single-stranded sRNA nucleic acids into mouse lung tissue” value is listed as “can effectively orally deliver”. Moreover, the “oral delivery of single-stranded sRNA nucleic acids into mouse pancreatic tissue” value is “can effectively orally deliver”, the “oral delivery of single-stranded sRNA nucleic acids into mouse spleen tissue” value is recorded as “can effectively orally deliver” and the “oral delivery of single-stranded sRNA nucleic acids into mouse stomach tissue” value is on record as “can effectively orally deliver”.

On to `CCCCC/C=C\C/C=C\C/C=C\C/C=C\CCCC(=O)NCCCO` [Lipid 808, (5Z,8Z,11Z,14Z)-N-(3-hydroxypropyl)icosa-5,8,11,14-tetraenamide], for which the “oral delivery of single-stranded sRNA nucleic acids into mouse blood” value is “can effectively orally deliver”, the “oral delivery of single-stranded sRNA nucleic acids into mouse brain tissue” value is listed as “can effectively orally deliver”, the “oral delivery of single-stranded sRNA nucleic acids into mouse femur” value is “can effectively orally deliver” and the “oral delivery of single-stranded sRNA nucleic acids into mouse heart tissue” value is “can effectively orally deliver”. In addition, the “oral delivery of single-stranded sRNA nucleic acids into mouse intestinal tissue” value was “can effectively orally deliver”, the “oral delivery of single-stranded sRNA nucleic acids into mouse kidney tissue” value is on record as “can effectively orally deliver”, the “oral delivery of single-stranded sRNA nucleic acids into mouse liver tissue” value is on record as “can effectively orally deliver” and the “oral delivery of single-stranded sRNA nucleic acids into mouse lung tissue” value is recorded as “can effectively orally deliver”. Moreover, the “oral delivery of single-stranded sRNA nucleic acids into mouse pancreatic tissue” value is given as “can effectively orally deliver”, the “oral delivery of single-stranded sRNA nucleic acids into mouse spleen tissue” value was “can effectively orally deliver” and the “oral delivery of single-stranded sRNA nucleic acids into mouse stomach tissue” value is on record as “can effectively orally deliver”.

On to `CCCCCCC(=O)OC/C=C(\C)CC/C=C(\C)CCC=C(C)C` [Lipid 809, [(2E,6E)-3,7,11-trimethyldodeca-2,6,10-trienyl]heptanoate], for which the “oral delivery of single-stranded sRNA nucleic acids into mouse blood” value is recorded as “can effectively orally deliver”, the “oral delivery of single-stranded sRNA nucleic acids into mouse brain tissue” value is “can effectively orally deliver”, the “oral delivery of single-stranded sRNA nucleic acids into mouse femur” value is given as “can effectively orally deliver” and the “oral delivery of single-stranded sRNA nucleic acids into mouse heart tissue” value is “can effectively orally deliver”. Besides, the “oral delivery of single-stranded sRNA nucleic acids into mouse intestinal tissue” value is given as “can effectively orally deliver”, the “oral delivery of single-stranded sRNA nucleic acids into mouse kidney tissue” value is on record as “can effectively orally deliver”, the “oral delivery of single-stranded sRNA nucleic acids into mouse liver tissue” value is recorded as “can effectively orally deliver” and the “oral delivery of single-stranded sRNA nucleic acids into mouse lung tissue” value is listed as “can effectively orally deliver”. Moreover, the “oral delivery of single-stranded sRNA nucleic acids into mouse pancreatic tissue” value is given as “can effectively orally deliver”, the “oral delivery of single-stranded sRNA nucleic acids into mouse spleen tissue” value was “can effectively orally deliver” and the “oral delivery of single-stranded sRNA nucleic acids into mouse stomach tissue” value is given as “can effectively orally deliver”.

Regarding `CCCCC/C=C\C/C=C\C/C=C\C/C=C\CCCC(=O)NCCN(CC)CC` [Lipid 810, (5Z,8Z,11Z,14Z)-N-[2-(diethylamino)ethyl]icosa-5,8,11,14-tetraenamide], the “oral delivery of single-stranded sRNA nucleic acids into mouse blood” value is “can effectively orally deliver”, the “oral delivery of single-stranded sRNA nucleic acids into mouse brain tissue” value is on record as “can effectively orally deliver”, the “oral delivery of single-stranded sRNA nucleic acids into mouse femur” value is on record as “can effectively orally deliver” and the “oral delivery of single-stranded sRNA nucleic acids into mouse heart tissue” value was “can effectively orally deliver”. In addition, the “oral delivery of single-stranded sRNA nucleic acids into mouse intestinal tissue” value is recorded as “can effectively orally deliver”, the “oral delivery of single-stranded sRNA nucleic acids into mouse kidney tissue” value is “can effectively orally deliver”, the “oral delivery of single-stranded sRNA nucleic acids into mouse liver tissue” value was “can effectively orally deliver” and the “oral delivery of single-stranded sRNA nucleic acids into mouse lung tissue” value is on record as “can effectively orally deliver”. Also, the “oral delivery of single-stranded sRNA nucleic acids into mouse pancreatic tissue” value is recorded as “can effectively orally deliver”, the “oral delivery of single-stranded sRNA nucleic acids into mouse spleen tissue” value is recorded as “can effectively orally deliver” and the “oral delivery of single-stranded sRNA nucleic acids into mouse stomach tissue” value is on record as “can effectively orally deliver”. Moreover, for the setting “100 μg lipid:10 nmol PGY-sRNA-26, all tissues and blood tested”, the “overall delivery efficacy: delivering nucleic acids into each tissue and blood tested” value is given as “best delivery efficacy”.

On to `CCCCC/C=C\C/C=C\CCCCCCCC(=O)OCCCCCCCCCCCCCC` [Lipid 811, tetradecyl (9Z,12Z)-octadeca-9,12-dienoate], for which the “oral delivery of single-stranded sRNA nucleic acids into mouse blood” value is on record as “can effectively orally deliver”, the “oral delivery of single-stranded sRNA nucleic acids into mouse brain tissue” value is “can effectively orally deliver”, the “oral delivery of single-stranded sRNA nucleic acids into mouse femur” value is listed as “can effectively orally deliver” and the “oral delivery of single-stranded sRNA nucleic acids into mouse heart tissue” value was “can effectively orally deliver”. In addition, the “oral delivery of single-stranded sRNA nucleic acids into mouse intestinal tissue” value is “can effectively orally deliver”, the “oral delivery of single-stranded sRNA nucleic acids into mouse kidney tissue” value is given as “can effectively orally deliver”, the “oral delivery of single-stranded sRNA nucleic acids into mouse liver tissue” value is recorded as “can effectively orally deliver” and the “oral delivery of single-stranded sRNA nucleic acids into mouse lung tissue” value is “can effectively orally deliver”. Further, the “oral delivery of single-stranded sRNA nucleic acids into mouse pancreatic tissue” value is “can effectively orally deliver”, the “oral delivery of single-stranded sRNA nucleic acids into mouse spleen tissue” value is recorded as “can effectively orally deliver” and the “oral delivery of single-stranded sRNA nucleic acids into mouse stomach tissue” value is “can effectively orally deliver”.

With `CCCCC/C=C\C/C=C\CCCCCCCCOC(=O)CCCCCCCCCCCCCCCCCCC` [Lipid 812, [(9Z,12Z)-octadeca-9,12-dienyl] icosanoate], the “oral delivery of single-stranded sRNA nucleic acids into mouse blood” value is “can effectively orally deliver”, the “oral delivery of single-stranded sRNA nucleic acids into mouse brain tissue” value is given as “can effectively orally deliver”, the “oral delivery of single-stranded sRNA nucleic acids into mouse femur” value is “can effectively orally deliver” and the “oral delivery of single-stranded sRNA nucleic acids into mouse heart tissue” value is “can effectively orally deliver”. Besides, the “oral delivery of single-stranded sRNA nucleic acids into mouse intestinal tissue” value is “can effectively orally deliver”, the “oral delivery of single-stranded sRNA nucleic acids into mouse kidney tissue” value is recorded as “can effectively orally deliver”, the “oral delivery of single-stranded sRNA nucleic acids into mouse liver tissue” value is given as “can effectively orally deliver” and the “oral delivery of single-stranded sRNA nucleic acids into mouse lung tissue” value is on record as “can effectively orally deliver”. Further, the “oral delivery of single-stranded sRNA nucleic acids into mouse pancreatic tissue” value is reported as “can effectively orally deliver”, the “oral delivery of single-stranded sRNA nucleic acids into mouse spleen tissue” value is recorded as “can effectively orally deliver” and the “oral delivery of single-stranded sRNA nucleic acids into mouse stomach tissue” value is reported as “can effectively orally deliver”.

Regarding `CCCCCC/C=C\CCCCCCCC(=O)OCCCCCCCCCCCCC` [Lipid 813, tridecyl (Z)-hexadec-9-enoate], the “oral delivery of single-stranded sRNA nucleic acids into mouse blood” value is on record as “can effectively orally deliver”, the “oral delivery of single-stranded sRNA nucleic acids into mouse brain tissue” value was “can effectively orally deliver”, the “oral delivery of single-stranded sRNA nucleic acids into mouse femur” value is on record as “can effectively orally deliver” and the “oral delivery of single-stranded sRNA nucleic acids into mouse heart tissue” value is “can effectively orally deliver”. Also, the “oral delivery of single-stranded sRNA nucleic acids into mouse intestinal tissue” value was “can effectively orally deliver”, the “oral delivery of single-stranded sRNA nucleic acids into mouse kidney tissue” value was “can effectively orally deliver”, the “oral delivery of single-stranded sRNA nucleic acids into mouse liver tissue” value is reported as “can effectively orally deliver” and the “oral delivery of single-stranded sRNA nucleic acids into mouse lung tissue” value was “can effectively orally deliver”. Further, the “oral delivery of single-stranded sRNA nucleic acids into mouse pancreatic tissue” value was “can effectively orally deliver”, the “oral delivery of single-stranded sRNA nucleic acids into mouse spleen tissue” value was “can effectively orally deliver” and the “oral delivery of single-stranded sRNA nucleic acids into mouse stomach tissue” value was “can effectively orally deliver”.
